Experimental data taken from PMC8312988 (Medicinal chemistry research : an international journal for …, 2015).

Legend:
[1] = Cytotoxicity assay, PBM cells; type: cell-based, Human; details: human
PBM cells = test: Cytotoxicity assay, PBM cells; type: cell-based, Human; details: for IC50: read-out: Cytotoxicity IC50 PBM, 5-day incubation
in vitro = details: human, CEM cells (lymphoblastic cell line)
[2] = Cytotoxicity assay, Vero cells; type: cell-based, African green monkey; details: African green monkey, Vero cells (kidney)
PBM, CEM and Vero cells = test: Cytotoxicity across all cell lines used; type: cell-based
HIV-1 = type: cell-based; details: for EC50: read-out: Anti-HIV-1 activity in PBM cells EC50; for EC90: read-out: Anti-HIV-1 activity in PBM cells EC90
CEM cells = details: for IC50: read-out: Cytotoxicity IC50 CEM, 5-day incubation
Vero cells = test: Cytotoxicity assay, Vero cells; type: cell-based, African green monkey; details: read-out: Cytotoxicity IC50 Vero; Vero cells, 5-day incubation

| IC50 at 5 day (in vitro) [µM] | Compound | IC50 at 5 day [1] [µM] | IC50 at 5 day [2] [µM] | also measured |
| --- | --- | --- | --- | --- |
| 5 | O=C(CN1c2c(n[nH]c2-c2cccc(Cl)c2)-c2ccccc2S1(=O)=O)NN=Cc1ccc(Br)cc1 [Compound 5e, N′-(4-Bromobenzylidene)-2-(3-(3-chlorophenyl)-5,5-dioxidobenzo[e]pyrazolo[4,3-c][1,2]thiazin-4(2H)-yl)acetohydrazide] | 66.7 | 46.5 | Toxicity in PBM cells (in words) (PBM cells): not toxic |
| 12.9 | O=C(CN1c2c(n[nH]c2-c2cccc(Cl)c2)-c2ccccc2S1(=O)=O)NN=Cc1cccc(Br)c1 [Compound 5d, N′-(3-Bromobenzylidene)-2-[3-(3-chlorophenyl)-5,5-dioxidobenzo[e]pyrazolo[4,3-c][1,2]thiazin-4(2H)-yl]acetohydrazide] | 22.9 | > 100 |  |
| 31.6 | O=C(CN1c2c(n[nH]c2-c2cccc(Cl)c2)-c2ccccc2S1(=O)=O)NN=Cc1cccc(Cl)c1 [Compound 5b, N′-(3-Chlorobenzylidene)-2-[3-(3-chlorophenyl)-5,5-dioxidobenzo[e]pyrazolo[4,3-c][1,2]thiazin-4(2H)-yl]acetohydrazide] | 36.3 | 16.4 |  |
| 31.6 | COc1cccc(C=NNC(=O)CN2c3c(n[nH]c3-c3cccc(Cl)c3)-c3ccccc3S2(=O)=O)c1 [Compound 5h, 2-[3-(3-Chlorophenyl)-5,5-dioxidobenzo[e]pyrazolo[4,3-c] [1,2]thiazin-4(2H)-yl]-N′-(3-methoxybenzylidene)acetohydrazide] | 19 | 22.3 |  |
| 22.4 | COC(=O)CN1C(C(=O)c2cccc(Cl)c2)=C(O)c2ccccc2S1(=O)=O [Compound 3, Methyl 2-[3-(3-chlorobenzoyl)-4-hydroxy-1,1-dioxido-2H-benzo[e][1,2]thiazin-2-yl]acetate] | 57.3 | 40.6 |  |
| 2.8 | O=C(CN1c2c(n[nH]c2-c2cccc(Cl)c2)-c2ccccc2S1(=O)=O)NN=Cc1ccc([N+](=O)[O-])cc1 [Compound 5m, 2-[3-(3-Chlorophenyl)-5,5-dioxidobenzo[e]pyrazolo[4,3-c] [1,2]thiazin-4(2H)-yl]-N′-[4-nitrobenzylidene]acetohydrazide] | 16.7 | 21.2 |  |
| 13.4 | O=C(CN1c2c(n[nH]c2-c2cccc(Cl)c2)-c2ccccc2S1(=O)=O)NN=Cc1ccc(C(=O)O)cc1 [Compound 5n, 4-[(2-(2-(3-(3-Chlorophenyl)-5,5-dioxidobenzo[e]pyrazolo [4,3-c][1,2]thiazin-4(2H)-yl)acetyl)hydrazono)methyl]benzoic acid] | 17.2 | 18.2 |  |
| 26.7 | O=C(C1=C(O)c2ccccc2S(=O)(=O)N1)c1cccc(Cl)c1 [Compound 2, (3-chlorophenyl)(4-hydroxy-1,1-dioxido-2H-benzo[e] [1,2]thiazin-3-yl)methanone] | > 100 | > 100 |  |
| 47.3 | O=C(CN1c2c(n[nH]c2-c2cccc(Cl)c2)-c2ccccc2S1(=O)=O)NN=Cc1cccc([N+](=O)[O-])c1 [Compound 5l, 2-[3-(3-Chlorophenyl)-5,5-dioxidobenzo[e]pyrazolo[4,3-c] [1,2]thiazin-4(2H)-yl]-N′-(3-nitrobenzylidene)acetohydrazide] | > 100 | 27 | Toxicity in PBM cells (in words) (PBM cells): not toxic |
| 2.5 | CN(C)c1ccc(C=NNC(=O)CN2c3c(n[nH]c3-c3cccc(Cl)c3)-c3ccccc3S2(=O)=O)cc1 [Compound 5o, 2-[3-(3-Chlorophenyl)-5,5-dioxidobenzo[e]pyrazolo[4,3-c] [1,2]thiazin-4(2H)-yl]-N′-[4-(dimethylamino)benzylidene] acetohydrazide] | 23.7 | 10.4 |  |
| 31.6 | O=C(CN1c2c(n[nH]c2-c2cccc(Cl)c2)-c2ccccc2S1(=O)=O)NN=Cc1ccc(F)cc1 [Compound 5a, 2-[3-(3-Chlorophenyl)-5,5-dioxidobenzo[e]pyrazolo[4,3-c] [1,2]thiazin-4(2H)-yl]-N′-(4-fluorobenzylidene)acetohydrazide] | 20 | 45.7 |  |
|  | NNC(=O)CN1c2c(n[nH]c2-c2cccc(Cl)c2)-c2ccccc2S1(=O)=O [Compound 4] |  |  | IC50 (PBM cells): > 100 µM; IC50 (CEM cells): > 100 µM; IC50 (Vero cells): > 100 µM; Toxicity to all the cell lines used (in words) (PBM, CEM and Vero cells): nontoxic; Anti-HIV-1 activity (in words) (HIV-1): inactive; EC50 (HIV-1): > 100 µM; EC90 (HIV-1): > 100 µM |
|  | O=C(CN1C(=O)c2ccccc2S1(=O)=O)c1cccc(Cl)c1 [Compound 1, N-3′-Chlorophenacylsaccharine] |  |  | IC50 (PBM cells): > 100 µM; IC50 (CEM cells): > 100 µM; IC50 (Vero cells): 54.8 µM; EC50 (HIV-1): > 100 µM; EC90 (HIV-1): > 100 µM |
| 12.5 | O=C(CN1c2c(n[nH]c2-c2cccc(Cl)c2)-c2ccccc2S1(=O)=O)NN=Cc1c(Cl)cccc1Cl [Compound 5g, 2-[3-(3-Chlorophenyl)-5,5-dioxidobenzo[e]pyrazolo[4,3-c] [1,2]thiazin-4(2H)-yl]-N′-(2,6-dichlorobenzylidene)acetohydrazide] | 52.5 | 60.5 | Toxicity in PBM cells (in words) (PBM cells): not toxic; Toxicity to CEM cell line (in words) (CEM cells): toxic to only CEM cell line |
| 31.6 | COc1cc(C=NNC(=O)CN2c3c(n[nH]c3-c3cccc(Cl)c3)-c3ccccc3S2(=O)=O)cc(OC)c1OC [Compound 5j, 2-[3-(3-chlorophenyl)-5,5-dioxidobenzo[e]pyrazolo[4,3-c] [1,2]thiazin-4(2H)-yl]-N′-(3,4,5-trimethoxybenzylidene) acetohydrazide] | 11 | 14.3 |  |
| 13.8 | O=C(CN1c2c(n[nH]c2-c2cccc(Cl)c2)-c2ccccc2S1(=O)=O)NN=Cc1ccc(Cl)cc1Cl [Compound 5f, 2-[3-(3-Chlorophenyl)-5,5-dioxidobenzo[e]pyrazolo[4,3-c] [1,2]thiazin-4(2H)-yl]-N′-(2,4-dichlorobenzylidene)acetohydrazide] | 80.7 | 84.8 | Toxicity in PBM cells (in words) (PBM cells): not toxic; Toxicity to CEM cell line (in words) (CEM cells): toxic to only CEM cell line |

| Compound | IC50 at 5 day (in vitro) [µM] | IC50 at 5 day [1] [µM] | IC50 at 5 day [2] [µM] | also measured |
| --- | --- | --- | --- | --- |
| O=C(CN1c2c(n[nH]c2-c2cccc(Cl)c2)-c2ccccc2S1(=O)=O)NN=Cc1ccccc1[N+](=O)[O-] [Compound 5k, 2-[3-(3-Chlorophenyl)-5,5-dioxidobenzo[e]pyrazolo[4,3-c] [1,2]thiazin-4(2H)-yl]-N′-(2-nitrobenzylidene)acetohydrazide] | > 100 | > 100 | > 100 | Toxicity to all the cell lines used (in words) (PBM, CEM and Vero cells): no toxicity; Anti-HIV-1 activity (in words) (HIV-1): no inhibition |
| COc1ccc(C=NNC(=O)CN2c3c(n[nH]c3-c3cccc(Cl)c3)-c3ccccc3S2(=O)=O)c(OC)c1OC [Compound 5i, 2-[3-(3-Chlorophenyl)-5,5-dioxidobenzo[e]pyrazolo[4,3-c] [1,2]thiazin-4(2H)-yl]-N′-(2,3,4-trimethoxybenzylidene) acetohydrazide] | 31.6 | 21.8 | 29 | EC50 (HIV-1): 4.2 µM |
| O=C(CN1c2c(n[nH]c2-c2cccc(Cl)c2)-c2ccccc2S1(=O)=O)NN=Cc1ccc(Cl)cc1 [Compound 5c, N′-(4-Chlorobenzylidene)-2-[3-(3-chlorophenyl)-5,5-dioxidobenzo[e]pyrazolo[4,3-c][1,2]thiazin-4(2H)-yl]acetohydrazide] | 2.5 | 12.8 | 19.2 | Toxicity to all the cell lines used (in words) (PBM, CEM and Vero cells): highly toxic; EC50 (HIV-1): 4 µM |
